Converted amounts (≈) assume the structure as drawn. The source made the active and inactive calls. The rule behind the calls is not given here.
Assays:
Plasma = assay: Inhibition of beta-hematin formation in Plasmodium yoelii-infected Swiss albino mouse plasma using hemin as substrate after 16 hrs; assay type: functional, cell-free
Plasmodium falciparum [1] = assay: Antimalarial activity against chloroquine-sensitive Plasmodium falciparum 3D7 after 72 hrs by MSF assay; assay type: functional, organism-based; settings: 3D7, 72 h
[2] = Selectivity index, ratio of CC50 for African green monkey Vero cells to IC50 for Plasmodium falciparum; assay type: functional
Plasmodium falciparum [3] = assay: Antimalarial activity against chloroquine-resistant Plasmodium falciparum K1 after 72 hrs by MSF assay; assay type: functional, organism-based; settings: K1, 72 h
Plasmodium yoelii [4] = assay: Antimalarial activity against chloroquine-resistant Plasmodium yoelii N-67 infected in Swiss mouse assessed as mean survival time at 50 mg/kg, ip qd for 4 days; assay type: functional; settings: route intraperitoneal
Plasmodium yoelii [5] = assay: Antimalarial activity against chloroquine-resistant Plasmodium yoelii N-67 infected in Swiss mouse assessed as suppression of parasitaemia level at 50 mg/kg, ip qd for 4 days relative to control; assay type: functional; settings: route intraperitoneal
Plasmodium yoelii [6] = assay: Antimalarial activity against chloroquine-resistant Plasmodium yoelii N-67 infected in Swiss mouse assessed as cured animal at 50 mg/kg, ip qd for 4 days measured on day 28 post infection relative to control; assay type: functional
Plasmodium falciparum [7] = assay: Ratio of chloroquine IC50 to compound IC50 for chloroquine-resistant Plasmodium falciparum K1; assay type: functional
Plasmodium yoelii [8] = assay: Antimalarial activity against chloroquine-resistant Plasmodium yoelii N-67 infected in Swiss mouse assessed as mouse survival at 50 mg/kg, ip qd for 4 days measured on day 28 post infection relative to control; assay type: functional
Plasmodium falciparum [9] = assay: Resistance index, ratio of IC50 for chloroquine-resistant Plasmodium falciparum K1 to IC50 for chloroquine-sensitive Plasmodium falciparum 3D7; assay type: functional

SMILES | IC50 (Plasma) [µg/mL] | inhibition (Plasma) | IC50 (Plasmodium falciparum [1]) [nM] | Ratio CC50/IC50 [2] | IC50 (Plasmodium falciparum [3]) [nM] | MST (Plasmodium yoelii [4]) [days] | Activity (Plasmodium yoelii [5]) [%] | Activity (Plasmodium yoelii [6]) | Ratio IC50 (Plasmodium falciparum [7]) | Activity (Plasmodium yoelii [8]) | Ratio IC50 (Plasmodium falciparum [9])
CC(C)(C)n1nnnc1C(Nc1ccc(Nc2ccnc3cc(Cl)ccc23)cc1)c1ccccc1 (stereo unspecified) | 5.55 (≈ 11.5 µM) | Dose-dependent effect | 59.6 | 2383.47 | > 1020 |  |  |  |  |  | 
CC(C)(C)n1nnnc1C(Nc1ccc(Nc2ccnc3cc(Cl)ccc23)cc1)c1cccc2ccccc12 (stereo unspecified) | 5.12 (≈ 9.59 µM) | Dose-dependent effect | 28 | 3815.38 | 77.8 | 12 | 57.03 | inactive | 3.38 | inactive | 2.7
CC(C)(C)n1nnnc1C(Nc1ccc(Nc2ccnc3cc(Cl)ccc23)cc1)c1ccc(Cl)c(Cl)c1 (stereo unspecified) | 5.4 (≈ 9.77 µM) | Dose-dependent effect | 11 | 7076.29 | 142 | 16.83 | 71.49 | inactive |  | inactive | 12.8
Clc1ccc(C(Nc2ccc(Nc3ccnc4cc(Cl)ccc34)cc2)c2nnnn2C2CCCCC2)cc1 (stereo unspecified) | 3.81 (≈ 7 µM) | Dose-dependent effect | 156 | 694.18 | 139 | 10.4 | 20.43 | inactive |  | inactive | 0.9
CCc1ccc(C(Nc2ccc(Nc3ccnc4cc(Cl)ccc34)cc2)c2nnnn2C(C)(C)C)cc1 (stereo unspecified) | 5.95 (≈ 11.6 µM) | Dose-dependent effect | 51.4 | 3652.19 | 688 |  |  |  |  |  | 13.4
COc1cc(C(Nc2ccc(Nc3ccnc4cc(Cl)ccc34)cc2)c2nnnn2C(C)(C)C)cc(OC)c1OC (stereo unspecified) | 5.65 (≈ 9.84 µM) | Dose-dependent effect | 54.2 | 300.57 | 573 |  |  |  |  |  | 10.5
Clc1ccc2c(Nc3ccc(NC(c4ccc(Br)cc4)c4nnnn4C4CCCCC4)cc3)ccnc2c1 (stereo unspecified) | 4.38 (≈ 7.44 µM) | Dose-dependent effect | 92.7 | 1191.58 | 73.7 | 12.6 | 69.56 | inactive | 3.38 | inactive | 0.8
CC(C)(C)n1nnnc1C(NCCNc1ccnc2cc(Cl)ccc12)c1ccc(Cl)cc1 (stereo unspecified) | 6.15 (≈ 13.1 µM) | Dose-dependent effect | 23.9 | 839.68 | 278 |  |  |  |  |  | 11.6
CC(C)(C)n1nnnc1C(NCCCNc1ccnc2cc(Cl)ccc12)c1cccc2ccccc12 (stereo unspecified) | 4.45 (≈ 8.9 µM) | Dose-dependent effect | 216 | 58.67 | 170 |  |  |  |  |  | 0.8
COc1ccc(C(Nc2ccc(Nc3ccnc4cc(Cl)ccc34)cc2)c2nnnn2C(C)(C)C)cc1OC (stereo unspecified) | 5.42 (≈ 9.96 µM) | Dose-dependent effect | 70.6 | 193.28 | 76.2 | 9.8 | 26.91 | inactive |  | inactive | 1

From ChEMBL document CHEMBL2413038, “Synthesis and bioevaluation of novel 4-aminoquinoline-tetrazole derivatives as potent antimalarial agents” (Eur J Med Chem, 2013)
